Results from patent US9029092B2, “Solution phase homogeneous assays” (Beckman Coulter, Inc., priority 2009, dated 2015).

Legend:
TnI = assay: Assays utilizing various SSIA in TnI assay; assay type: biochemical; conditions: for Signal/Noise S1/S0: calibrator S1; for Signal/Noise S2/S0: calibrator S2; for Signal/Noise S3/S0: calibrator S3; for Signal/Noise S4/S0: calibrator S4; for Signal/Noise S5/S0: calibrator S5; for Signal/Noise S6/S0: calibrator S6
Protocol: In a reaction tube, 400 uL of TnI M6 antibody-HRP conjugate at 0.5 ug/mL in buffered aqueous solution at pH. 8.0 (100 mM Tris, 150 mM NaCl, 0.1 mM EDTA, 0.2% Tween-20 and 1% BSA), 400 uL of AK1˜Dex70/31˜Streptavidin (fraction 1) 2:1 SA/Ab at 2 ug/mL Ab also in buffered aqueous solution at pH 8.0, and 400 uL of calibrator standard solution containing the TnI analyte at a known concentration. One tube was prepared for each calibrator concentration. […] Next, 25 uL of each antioxidant as a concentrated solution of 2 mM, 1 mM or 0.5 mM was pipetted into the plate wells using a repeater pipette. The plates were rotated for 10 seconds to mix and incubated between 5 to 33 minutes. Detection was performed with a SpectraMax L injection plate luminometer.

PSA [1] = assay: Assay of PSA with dextran scaffold chemiluminescent-labeled sbp with and without SSIA; assay type: biochemical, human; conditions: ascorbic acid as SSIA
Protocol: In this example, one member of a specific binding pair of monoclonal antibodies for PSA is conjugated to a dextran molecule coupled with AK1, as described in Example 10 below, except the antibody is thiolated and covalently-linked to AK11-labeled and maleimide-activated dextran. A second monoclonal PSA antibody was conjugated to HRP, as described above and provided in an aqueous solution at either 0.5 μg/ml, 0.1 μg/ml or 0.03 μg/ml as indicated in the tables below. The assays were performed by placing 25 μl of sample in each of two reaction vessels. To the sample in the first reaction vessel, 25 μl of Ab1 solution, 25 μl of water, 25 μl of Ab2 solution was added and incubated for 15 minutes. […] Each sample was analyzed according to the above assay method in triplicate. […] A ratio of signal to noise (S/S0) was calculated at each concentration value. […] Samples of known concentration were prepared as described previously. Each sample was analyzed according to the above method in triplicate.

PSA [2] = assay: Assay of PSA with direct-labeled sbp's (Ab1-AK11, Ab2-HRP) with and without SSIA; assay type: biochemical, human; conditions: 600 μM ascorbic acid solution
Protocol: The Ab1-AK11 conjugate was provided in PBS, pH 7.4 at 10 μg/ml. The Ab2-HRP conjugate was provided in PBS, pH 7.4 at 0.25 μg/ml. […] For comparison without SSIA, in a second reaction vessel, 25 μl of Ab1-AK11 conjugate, 25 μl of water, 25 μl of Ab2-HRP conjugate were added to 25 μl of sample and incubated for 15 minutes.
Each sample was analyzed according to the above assay method in triplicate. The RLU data collected for each assayed sample during the time interval of 495 milliseconds starting 125 milliseconds from start of trigger solution introduction into the reaction vessel was summed for each individual run, averaged over the triplicates for each sample and presented in Table 13. A ratio of signal to noise (S/S0) was calculated at each concentration value.

[3] = SSIA final concentration 125 uM
[4] = SSIA final concentration 250 uM
[5] = SSIA final concentration 500 uM

SMILES: O=C1O[C@H]([C@@H](O)CO)C(O)=C1O [Ascorbic Acid]
- Signal/Noise S1/S0 (TnI; [3]): 1.4
- Signal/Noise S1/S0 (TnI; [4]): 1.6
- Signal/Noise S1/S0 (TnI; [5]): 1.3
- Signal/Noise S2/S0 (TnI; [3]): 2.7
- Signal/Noise S2/S0 (TnI; [4]): 2.6
- Signal/Noise S2/S0 (TnI; [5]): 1.8
- Signal/Noise S3/S0 (TnI; [3]): 8.5
- Signal/Noise S3/S0 (TnI; [4]): 8.2
- Signal/Noise S3/S0 (TnI; [5]): 5.1
- Signal/Noise S4/S0 (TnI; [3]): 32.2
- Signal/Noise S4/S0 (TnI; [4]): 28.7
- Signal/Noise S4/S0 (TnI; [5]): 15.4
- Signal/Noise S5/S0 (TnI; [3]): 228.0
- Signal/Noise S5/S0 (TnI; [4]): 188.5
- Signal/Noise S5/S0 (TnI; [5]): 87.5
- Signal/Noise S6/S0 (TnI; [3]): 2196.3
- Signal/Noise S6/S0 (TnI; [4]): 1511.1
- Signal/Noise S6/S0 (TnI; [5]): 562.4
- RLU, w/SSIA (PSA [1]; PSA 0.0 ng/mL): 1756 RLU
- S/S0, w/SSIA (PSA [1]; PSA 0.0 ng/mL): 1.0
- RLU, w/SSIA (PSA [1]; PSA 0.4 ng/mL): 4393 RLU
- S/S0, w/SSIA (PSA [1]; PSA 0.4 ng/mL): 2.5
- RLU, w/SSIA (PSA [1]; PSA 7.0 ng/mL): 57119 RLU
- S/S0, w/SSIA (PSA [1]; PSA 7.0 ng/mL): 32.5
- RLU, w/SSIA (PSA [1]; PSA 101.6 ng/mL): 604024 RLU
- S/S0, w/SSIA (PSA [1]; PSA 101.6 ng/mL): 344.0
- RLU, With SSIA (PSA [2]; PSA 0.0 ng/mL): 180 RLU
- S/S0, With SSIA (PSA [2]; PSA 0.0 ng/mL): 1.0
- RLU, With SSIA (PSA [2]; PSA 0.4 ng/mL): 324 RLU
- S/S0, With SSIA (PSA [2]; PSA 0.4 ng/mL): 1.8
- RLU, With SSIA (PSA [2]; PSA 7.0 ng/mL): 3032 RLU
- S/S0, With SSIA (PSA [2]; PSA 7.0 ng/mL): 16.8
- RLU, With SSIA (PSA [2]; PSA 101.6 ng/mL): 23119 RLU
- S/S0, With SSIA (PSA [2]; PSA 101.6 ng/mL): 128.4
